From US8952054B2, “Small molecule inhibitors of MUC1 and methods of identifying the same” (Dana-Farber Cancer Institute, Inc., priority 2010, dated 2015)

Legend:
[1] = tested on: ZR-75-1 breast tumor xenografts; test: ZR-75-1 breast tumor xenografts in nude mice; type: in vivo, Balb-c nu/nu mice
Procedure: FIGS. 5A-C. MUC1/CQC peptide blocks growth of ZR-75-1 breast tumor xenografts. (FIG. 5A) Four to six week-old female Balb-c nu/nu mice were implanted with 17-β-estradiol plugs. After 24 h, ZR-75-1 breast cancer cells (imbedded in matrigel) were injected subcutaneously in the flank. When tumors were ˜150 mm3, the mice were paired matched into groups and injected intraperitoneally with PBS (vehicle control; closed squares), 50 mg/kg MUC1/AQA peptide (control peptide; open squares) or 10 mg/kg MUC1/CQC peptide (closed triangles) daily for 21 d. Another group was treated with 50 mg/kg MUC1/CQC peptide daily for 6 d (open triangles). Mice were weighed twice weekly and tumor measurements were performed every 4 d. (FIGS. 5B and 5C). On day 24 (asterisk), tumors harvested from the control group and the group treated with 50 mg/kg/d×6 d were stained with H&E (FIG. 5B) and with an antibody against MUC1 (FIG. 5C).
To determine if administration of the MUC1/CQC peptide is associated with effects on body weight, five female nude (nu/nu) mice were injected intraperitoneally (IP) once each day at a dose of 50 mg/kg. […] To assess anti-tumor activity, ZR-75-1 cells (1×10^7) were implanted subcutaneously into the flanks of nude mice. After 12 d, mice bearing tumors of approximately 150 mm^3 were treated with the MUC1/CQC peptide at doses of 10 and 50 mg/kg/d. As controls, mice were treated with vehicle alone or with the MUC1/AQA peptide. Administration of the MUC1/CQC peptide at 10 mg/kg/d×21 d slowed growth as compared to that obtained with the MUC1/AQA peptide given at 50 mg/kg/d (FIG. 5A). […] Consequently, treatment was stopped and the mice were monitored for regrowth. […] To assess in part the basis for the activity, tumors harvested from control and treated mice were examined by histopathology. […] Sections of the tumors were also stained with an antibody against MUC1.

[2] = tested on: MUC1-expressing cancer cells; test: Secondary screen against MUC1-expressing cancer cells in vitro; type: cell-based; conditions: legend: ZR-75-1 breast carcinoma cells, 2 days, anti-MUC1-C immunoblot
Procedure: ZR-75-1 breast carcinoma cells were treated with […] Kaempterol for 2 days. Total cell lysates were then analyzed by immunoblotting with anti-MUC1-C antibody (FIG. 17A) or with anti-Actin antibodies (FIG. 17B).
Initial screens were performed in the presence of compounds at a concentration of 100 μM.

MCF-10A cells = test: MCF-10A cell number (MTS), caspase-9 cleavage and PI uptake; type: cell-based, human; conditions: 3 d
Procedure: (§1) FIGS. 13A-D—Apigenin downregulates MUC1 and confers death of MCF-10A cells. (FIG. 13A) MCF-10A cells were treated with the indicated concentrations of apigenin and baicalein for 3 d, washed and then treated for an additional 3 d. Lysates were immunoblotted with the indicated antibodies. (FIG. 13B) MCF-10A cells were treated with the indicated concentrations apigenin (circles) and baicalein (squares) for 3 d. Viable cell number was determined by the MTS assay. The results (mean+SD of 3 determinations) are expressed as percentage of control growth in the presence of DMSO. (FIG. 13C) MCF-10A cells were treated with DMSO, 75 μM apigenin or 75 μM baicalein for 3 d. Lysates were subjected to immunoblotting with the indicated antibodies. (FIG. 13D) MCF-10A cells were treated with DMSO, 75 μM apigenin or 75 μM baicalein for 3 d, stained with propidium iodide and analyzed by flow cytometry.

MUC1 = MUC1 mRNA (qRT-PCR) and MUC1-C protein (immunoblot) in MCF-7 cells; type: cell-based, human; conditions: for MUC1 mRNA levels: MCF-7, 75 μM, 3 d, qRT-PCR; for MUC1-C protein in the nucleus / MUC1-C protein in whole cell lysates: MCF-7, 3 days
Procedure: FIGS. 14A-E—Apigenin suppresses MUC1 expression in MCF-7 cells. (FIG. 14A) MCF-7 cells were treated with DMSO vehicle, 75 μM apigenin or 75 μM baicalein for 3 d. Total RNA was assayed for MUC1 mRNA levels by qRTPCR. The results (mean+SD of 3 determinations) are expressed as relative MUC1 mRNA levels as compared to that obtained in cells treated with DMSO. (FIGS. 14B-C) MCF-7 cells were treated with the indicated concentrations of apigenin and baicalein for 3 days. Nuclear (FIG. 14B) and whole cell lysates (FIG. 14C) were immunoblotted with the indicated antibodies. D. Lysates from MCF-7 cells were infected to stably express a control lentivirus and one with a MUC1 shRNA were immunoblotted with the indicated antibodies. (FIG. 14E) The indicated MCF-7 cells were treated with […] apigenin for 3 d. Viable cell number was determined by the MTS assay. The results (mean+SD of 3 determinations) are expressed as percentage of control growth in the presence of DMSO.

MUC1-C = molecular target: T1, MUC1-C (Homo sapiens, UniProt P15941); test: Immunoblot of MUC1-C levels in MCF-10A cells (flavones); type: cell-based; set-up: endogenous in cells; conditions: 50 to 100 μM, 3 d then additional 3 d
T1 sequence (P15941 1098-1255 limits assumed): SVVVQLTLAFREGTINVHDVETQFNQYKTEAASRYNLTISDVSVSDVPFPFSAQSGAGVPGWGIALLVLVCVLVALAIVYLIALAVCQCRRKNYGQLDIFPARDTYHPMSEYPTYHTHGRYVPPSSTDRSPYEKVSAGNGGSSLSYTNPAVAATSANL
Procedure: as §1

Row | MUC1-C levels (MUC1-C) | Compound | MUC1 expression in tumor sections (antibody staining) ([1]; versus control tumors) | tumor growth ([1]; 10 mg/kg/d × 21 d IP, versus MUC1/AQA 50 mg/kg/d) | tumor growth ([1]; 50 mg/kg/d IP, initial 7 d of treatment) | tumor regrowth after treatment stopped ([1]; 50 mg/kg/d group, next 17 d) | tumor histopathology (H&E) ([1]; 10 and 50 mg/kg, versus vehicle or MUC1/AQA) | inhibition (FIGS. 17A-B) [2] | caspase-9 cleavage (MCF-10A cells; 75 μM) | cell membrane integrity (PI uptake) (MCF-10A cells; 75 μM) | cell number (MTS) (MCF-10A cells) | MUC1 mRNA levels (MUC1) | MUC1-C protein in the nucleus (MUC1) | MUC1-C protein in whole cell lysates (MUC1)
1 |  | MUC1/AQA: control peptide in which the CQC motif was altered to AQA (SEQ ID NO: 11) (AQARRKNYGQLDIFP) [reference compound] | marked down-regulation of MUC1 expression |  |  |  |  |  |  |  |  |  |  | 
2 |  | CC[C@H](C)[C@H](NC(=O)[C@H](CC(=O)O)NC(=O)[C@H](CC(C)C)NC(=O)[C@H](CCC(N)=O)NC(=O)CNC(=O)[C@H](Cc1ccc(O)cc1)NC(=O)[C@H](CC(N)=O)NC(=O)[C@H](CCCCN)NC(=O)[C@H](CCCNC(=N)N)NC(=O)[C@H](CCCNC(=N)N)NC(=O)[C@H](CS)NC(=O)[C@H](CCC(N)=O)NC(=O)[C@H](CS)NC(=O)[C@@H](CCCNC(=N)N)NC(=O)[C@@H](CCCNC(=N)N)NC(=O)[C@@H](CCCNC(=N)N)NC(=O)[C@@H](CCCNC(=N)N)NC(=O)[C@@H](CCCNC(=N)N)NC(=O)[C@@H](CCCNC(=N)N)NC(=O)[C@@H](CCCNC(=N)N)NC(=O)[C@@H](CCCNC(=N)N)NC(=O)[C@H](N)CCCNC(=N)N)C(=O)N[C@@H](Cc1ccccc1)C(=O)N1CCC[C@H]1C(=O)O [MUC1/CQC] |  | slowed growth | blocked growth | no detectable growth | markedly necrotic |  |  |  |  |  |  | 
3 | downregulation of MUC1-C levels | O=c1cc(-c2ccc(O)cc2)oc2cc(O)cc(O)c12 [Apigenin, 4′,5,7-trihydroxyflavone] |  |  |  |  |  | showed inhibition | caspase-9 cleavage | loss of cell membrane integrity | decreased MCF-10A cell number | downregulation of MUC1 mRNA levels | decreased expression of the MUC1-C protein | decreased expression of the MUC1-C protein
4 | no apparent effect | O=c1cc(-c2ccccc2)oc2cc(O)c(O)c(O)c12 [Baicalein, 5,6,7-trihydroxyflavone, reference compound] |  |  |  |  |  | did not | not |  | substantially less effective | no apparent effect | not | not
